Where no end group is shown, it is not given here. [ ]: non-standard residue; d: D form. TGN = not defined here
Test system: CTNNB1
Test: In vitro DMD assay: mRNA silencing enhancement by peptide conjugates after siRNA-IV treatment
Assay type: cell-based
Conditions: primary mouse hepatocytes, siRNA-IV 125 nM baseline
Protocol: Cryopreserved primary Mouse hepatocytes (Bioreclamation, LLC) were placed into Collagen Type I coated 96-well plates at 25,000 cells per well in serum-containing InVitroGRO CP media (Bioreclamation, LLC) and allowed 5 hours to attach. Media was replaced with InVitroGRO HI media and cells were treated with siRNA-IV at 125 nM [siRNA] for 1 hour. Media was replaced with InVitroGRO HI media and cells were treated for approximately 16 hours with experimental Peptide conjugates at various concentrations to establish a dose-response curve. Peptide conjugates were washed out after 16 hours with InVitroGRO HI media and cells allowed to incubate for an additional 24 hours. Cells were then lysed and mRNA expression of the siRNA target was measured by RT-qPCR (Applied Biosystems Taqman reagents). mRNA silencing activity of each Peptide conjugate was expressed as an enhancement above the baseline activity of 125 nM siRNA-IV alone with respect to the untreated cells and all siRNA target Ct values were normalized to PPIB mRNA for each well (dddCt) and summarized.
The structure of TGN-S-S-peptide is shown below and the activity data is listed in Table 5 (siRNA-IV concentration was kept at […]).

Substance | In vitro dddCt (vs. baseline SCE dose) (Targeted peptide dose 8 nM) | In vitro dddCt (vs. baseline SCE dose) (Targeted peptide dose 40 nM) | In vitro dddCt (vs. baseline SCE dose) (Targeted peptide dose 200 nM) | In vitro dddCt (vs. baseline SCE dose) (Targeted peptide dose 1000 nM) | In vitro dddCt (vs. baseline SCE dose) (Targeted peptide dose 5000 nM)
TGN-S-S-SEQ ID NO: 1786 (D) ([dC]G[dL][dF]G[dE][dI][dE][dE][dL][dW][dE][dE]G[dL][dE][dN][dL][dI][dD][dW]G[dN]G; not fully specified (residue 1); also: TGN conjugated via disulfide at Cys1; listed as Homo sapiens) | 0.17 | 0.13 | 0.06 | 0.06 | 0.18
TGN-S-S-SEQ ID NO: 1793 (D) ([dC]G[dL][dL]G[dE][dI][dE][dE][dL][dI][dE][dE]G[dL][dE][dN][dL][dI][dD][dW]G[dN]G; not fully specified (residue 1); also: TGN conjugated via disulfide at Cys1; listed as Homo sapiens) | −0.02 | −1.04 | −2.36 | −2.75 | −2.65
TGN-S-S-SEQ ID NO: 1794 (D) ([dC]G[dL][dF]G[dA][dI][dE][dE][dL][dI][dE][dE]G[dL][dE][dN][dL][dI][dD][dW]G[dN]G; not fully specified (residue 1); also: TGN conjugated via disulfide at Cys1; listed as Homo sapiens) | −0.09 | −0.8 | −2.22 | −2.71 | −2.61
TGN-S-S-SEQ ID NO: 1795 (D) ([dC]G[dF][dF]G[dE][dI][dE][dE][dL][dI][dE][dE]G[dL][dE][dN][dL][dI][dD][dW]G[dN]G; not fully specified (residue 1); also: TGN conjugated via disulfide at Cys1; listed as Homo sapiens) | −0.1 | −0.33 | −0.71 | 0.94 | −0.71
TGN-S-S-SEQ ID NO: 1796 (D) ([dC]G[dL][dW]G[dE][dI][dE][dE][dL][dI][dE][dE]G[dL][dE][dN][dL][dI][dD][dW]G[dN]G; not fully specified (residue 1); also: TGN conjugated via disulfide at Cys1; listed as Homo sapiens) | 0.05 | −0.56 | −1.13 | −1.98 | −1.81
TGN-S-S-SEQ ID NO: 1797 (D) ([dC]G[dL][dF]G[dE][dW][dE][dE][dL][dI][dE][dE]G[dL][dE][dN][dL][dI][dD][dW]G[dN]G; not fully specified (residue 1); also: TGN conjugated via disulfide at Cys1; listed as Homo sapiens) | 0 | 0.41 | 0.08 | 0.05 | 0.24
TGN-S-S-SEQ ID NO: 1798 (D) ([dC]G[dL][dF]G[dE][dF][dE][dE][dL][dI][dE][dE]G[dL][dE][dN][dL][dI][dD][dW]G[dN]G; not fully specified (residue 1); also: TGN conjugated via disulfide at Cys1; listed as Homo sapiens) | −0.09 | −0.69 | −0.13 | −0.26 | −0.18
TGN-S-S-SSEQ ID NO: 1799(D) ([dC]G[dL][dF]G[dE][dI][dE][dE][dL][dI][dE][dE]G[dL][dE][dN][dL][dL][dD][dW]G[dN]G; not fully specified (residue 1); also: TGN conjugated via disulfide at Cys1; listed as Homo sapiens) | 0.03 | −0.45 | −1.63 | −2.13 | −2.22
TGN-S-S-Seq-ID-25 (D) ([dC][dI][dF]G[dA][dI][dA]G[dF][dI][dK][dN][dI][dW][dE]G[dL][dI][dD][dA][dF]; not fully specified (residue 1); also: disulfide-linked to TGN peptide via Cys; listed as Homo sapiens) | −0.06 | 0.2 | −0.13 | 0.01 | −1.72
TGN-S-S-Seq-ID-37 (L) (C(TGN)IFGAIAGFIKNIWKGLIDWWYG; reading uncertain; also: disulfide-linked to TGN peptide via Cys; listed as Homo sapiens) | 0.02 | 0.14 | −0.01 | −0.19 | −0.79
TGN-S-S-Seq-ID-54 (L) (C(TGN)FFGAIWEFIRSILEGLIDGWYGYGRKKRRQRR; reading uncertain; also: disulfide-linked to TGN peptide via Cys; listed as Homo sapiens) | 0.03 | −0.07 | −0.16 | −0.03 | 0.07
TGN-S-S-Seq-ID-55 (L) (C(TGN)GLFHALLHLLHSLWHLLLHAWYGYGRKKRRQRR; reading uncertain; also: disulfide-linked to TGN peptide via Cys; listed as Homo sapiens) | 0.11 | 0.08 | 0.12 | 0.05 | −0.01
TGN-S-S-Seq-ID-56 (L) (C(TGN)GLFHALLHLLHSLWHLLLHAWYGYGHKKHHQHR; reading uncertain; also: disulfide-linked to TGN peptide via Cys; listed as Homo sapiens) | 0.02 | 0.05 | −0.12 | −0.08 | −0.58
TGN-S-S-Seq-ID-57 (L) (C(TGN)GLFGALLELLESLWKGLLEWYGRKKRRQRR; reading uncertain; also: disulfide-linked to TGN peptide via Cys; listed as Homo sapiens) | 0.1 | 0 | 0.02 | 0.1 | 0.09
TGN-S-S-Seq-ID-58 (D) (CRRQRRKKRGYGYWGDILGEWGNEIFGEIAEFLG; not fully specified; TGN disulfide conjugate; D-amino acids; listed as Homo sapiens) | −0.05 | −0.03 | −0.25 | −0.26 | −0.3
TGN-S-S-Seq-ID-61 (D) (CRRQRRKKRGYGYWWDILGKWGNEIFGEIAEFLG; not fully specified; TGN disulfide conjugate; D-amino acids; listed as Homo sapiens) | 0.13 | 0.08 | 0.01 | 0 | −0.55
TGN-S-S-Seq-ID-65 (D) ([dC][dI][dF]G[dA][dI][dA]G[dF][dI][dK][dN][dI][dW][dK]; not fully specified (residue 1); also: disulfide-linked to TGN peptide via Cys; listed as Homo sapiens) | 0 | −0.73 | −1.48 | −1.88 | −2.68
TGN-S-S-Seq-ID-111 (D) ([dC][dF][dF]G[dA][dI][dW][dE][dF][dI][dK][dS][dI][dL][dE]G[dL][dI][dD][dW][dW][dY]G[dY]G[dH][dK][dK][dH][dH][dQ][dH][dR]; not fully specified (residue 1); also: TGN conjugated via disulfide at Cys1; listed as Homo sapiens) | – | – | – | – | −1.4
TGN-S-S-Seq-ID-115 (D) ([dC][dL][dH][dL][dL][dH][dH][dL][dL][dH][dH][dL][dH][dH][dL][dL][dH][dH][dL][dL][dH][dL][dL][dH][dH][dL][dL][dH][dH][dL]GGG[dR][dK][dK][dR][dR][dQ][dR][dR][dR][dP][dP][dQ]; not fully specified (residue 1); also: TGN conjugated via disulfide at Cys1; listed as Homo sapiens) | – | – | – | – | −0.17
